Our source for the MIC values is ChEMBL document CHEMBL4699447, “Initial Analysis of the Arylomycin D Antibiotics” (2020).

Bounds are passed on as bounds.

Holding throughout (format): functional
The subject of experiment [1] is Yersinia pestis. Put plainly: Antimicrobial activity against Yersinia pestis KIM6+ assessed as reduction in microbial growth after 24 hrs by CLSI based broth microdilution method.
In experiment [2] the test system is Staphylococcus epidermidis. Put plainly: Antimicrobial activity against Staphylococcus epidermidis RP62A assessed as reduction in microbial growth after 24 hrs by CLSI based broth microdilution method.
The subject of experiment [3] is Escherichia coli. The experiment can be described thus: Antimicrobial activity against Escherichia coli K-12 assessed as reduction in microbial growth after 24 hrs by CLSI based broth microdilution method.
The subject of experiment [4] is Escherichia coli. Put plainly: Antimicrobial activity against Escherichia coli IMP BAS901 assessed as reduction in microbial growth after 24 hrs by CLSI based broth microdilution method.
The test system of experiment [5] is Staphylococcus aureus. The experiment can be described thus: Antimicrobial activity against methicillin-resistant Staphylococcus aureus USA300 assessed as reduction in microbial growth after 24 hrs by CLSI based broth microdilution method.

On to `CCCCCCCCCCCCCCCC(=O)NCCC(=O)N[C@@H](CS(=O)(=O)O)C(=O)N(C)[C@@H]1C(=O)N[C@@H](C)C(=O)N[C@H](C(=O)O)Cc2ccc(O)c(c2)-c2cc1ccc2O`, for which the MIC in experiment [1] was 2 µg/mL; in experiment [2], 4 µg/mL; in experiment [3] it was more than 64 µg/mL; in experiment [4], more than 64 µg/mL; in experiment [5], 16 µg/mL.

In the case of `CCCCCCCCCCCCCCCC(=O)NCCC(=O)N[C@@H](CS(=O)(=O)O)C(=O)N(C)[C@@H]1C(=O)N[C@@H](C)C(=O)N[C@H](C(=O)O)Cc2ccc(OS(=O)(=O)O)c(c2)-c2cc1cc(OS(=O)(=O)O)c2O[C@@H]1O[C@@H](C)[C@H](O)[C@@H](O)[C@H]1O`, the MIC in experiment [1], in experiment [2], in experiment [4] and in experiment [5] was more than 64 µg/mL in each case.

In the case of `CCCCCCCCCCCCCCCC(=O)NCCC(=O)N[C@H](CS(=O)(=O)O)C(=O)N(C)[C@@H]1C(=O)N[C@@H](C)C(=O)N[C@H](C(=O)O)Cc2ccc(OS(=O)(=O)O)c(c2)-c2cc1cc(OS(=O)(=O)O)c2O[C@@H]1O[C@@H](C)[C@H](O)[C@@H](O)[C@H]1O`, the MIC in experiment [1], in experiment [2], in experiment [4] and in experiment [5] was more than 64 µg/mL each time.

For the molecule `CCCCCCCCCCCCCCCC(=O)N(C)[C@H](CO)C(=O)N[C@H](C)C(=O)NCC(=O)N(C)[C@@H]1C(=O)N[C@@H](C)C(=O)N[C@H](C(=O)O)Cc2ccc(OS(=O)(=O)O)c(c2)-c2cc1cc(OS(=O)(=O)O)c2O[C@@H]1O[C@@H](C)[C@H](O)[C@@H](O)[C@H]1O`, the MIC in experiment [1], in experiment [2], in experiment [4] and in experiment [5] was more than 64 µg/mL in each case.

`CCCCCCCCCCCCCCCC(=O)NCCC(=O)N[C@@H](CS(=O)(=O)O)C(=O)N(C)[C@@H]1C(=O)N[C@@H](C)C(=O)N[C@H](C(=O)O)Cc2ccc(O)c(c2)-c2cc1cc(O)c2O[C@@H]1O[C@@H](C)[C@H](O)[C@@H](O)[C@H]1O`: the MIC in experiment [1] is 4 µg/mL; in experiment [2] it was 8 µg/mL; in experiment [3], more than 64 µg/mL; in experiment [4], 64 µg/mL; in experiment [5], 32 µg/mL.

Consider `CCCCCCCCCCCCCCCC(=O)N(C)[C@H](CO)C(=O)N[C@H](C)C(=O)NCC(=O)N(C)[C@@H]1C(=O)N[C@@H](C)C(=O)N[C@H](C(=O)O)Cc2ccc(O)c(c2)-c2cc1ccc2O` [ARYLOMYCIN C16], for which the MIC in experiment [2] was 0.25 µg/mL; in experiment [3], more than 64 µg/mL; in experiment [4], 16 µg/mL; in experiment [5], more than 64 µg/mL.
